Measured values as given in patent US9615577B2, “Herbicidally active cyclic dione compounds, or derivatives therefor, substituted by a phenyl which has an alkynyl-containing substituent” (Syngenta Limited, priority 2012, dated 2017).

Assays:
Assay type in all cases: in vivo
[1] = system: SORVU (Sorghum bicolor (L.) Moench ssp. Bicolor, or Sorghum vulgare Pers.); assay: Test 1B glasshouse assay for herbicidal activity, post-emergence; conditions: 360 h
Summary of the method: (§1)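 Seeds sown in standard soil; sprayed after 1 day (pre-emergence) or ~12 days (post-emergence) with active ingredient from a 50 g/liter IF50 formulation diluted in 0.2% v/v X-77 aqueous adjuvant. Glasshouse at 24/18° C. day/night, 16 h light, 65% humidity; visual % phytotoxicity scored 20 DAA (pre) or 15 DAA (post).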

[2] = system: Digitaria sanguinalis (DIGSA); assay: as above; conditions: 360 h
Summary of the method: as §1

Setaria faberi (SETFA) [3] = assay: as above; conditions: 360 h
Summary of the method: as §1

[4] = system: Amaranthus retroflexus (AMARE); assay: Test 1A glasshouse assay for herbicidal activity, pre-emergence; conditions: 312 h, 250 g/ha, evaluated after 13 days, read-out: percentage phytotoxicity AMARE
Summary of the method: (§2)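 Seeds sown in standard soil were sprayed 1 day after sowing (pre-emergence) or after 8 days' growth (post-emergence) with the active ingredient in acetone/water (50:50) containing 0.5% Tween 20. Plants were kept in a glasshouse at 24/16 °C day/night, 14 h light, 65% humidity; phytotoxicity was scored visually after 13 days (0–100%).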

[5] = system: Alopecurus myosuroides (ALOMY); assay: as above; conditions: 312 h, 250 g/ha, evaluated after 13 days, read-out: percentage phytotoxicity ALOMY
Summary of the method: as §2

[6] = system: Echinochloa crus-galli (ECHCG); assay: as above; conditions: 312 h, 250 g/ha, evaluated after 13 days, read-out: percentage phytotoxicity ECHCG
Summary of the method: as §2

Setaria faberi (SETFA) [7] = assay: as above; conditions: 312 h, 250 g/ha, evaluated after 13 days, read-out: percentage phytotoxicity SETFA
Summary of the method: as §2

[8] = system: Brachiaria plantaginea (BRAPL); assay: Test 1B glasshouse assay for herbicidal activity, pre-emergence; conditions: Urochloa plantaginea, 480 h, 125 g/ha, 20 DAA, read-out: percentage phytotoxicity BRAPL
Summary of the method: as §1

[9] = system: Beta vulgaris (BEAVA, sugar beet); assay: Test 1B glasshouse assay for herbicidal activity, post-emergence; conditions: 360 h
Summary of the method: (§3)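 Plants grown in soil at 20/16° C day/night, 16 h light, 65% humidity; sprayed after 1 day (pre-emergence) or ~12 days (post-emergence) with formulated compound in 0.2% v/v X-77 adjuvant. Visual % phytotoxicity scored 20 DAA (pre) or 15 DAA (post).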

[10] = system: Brassica napus (BRSNN, rape); assay: as above; conditions: 360 h
Summary of the method: as §3

[11] = system: Triticum aestivum (TRZAW, winter wheat); assay: as above; conditions: 360 h
Summary of the method: as §3

Avena fatua (AVEFA) = assay: as above; conditions: 360 h
Summary of the method: (§4)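 Potted plants were sprayed one day after sowing (pre-emergence) or at about 12 days (post-emergence) with IF50 formulation diluted in 0.2% v/v X-77, with application rate varied. Plants grew at 20/16 °C day/night, 16 h light, 65% humidity. Percentage phytotoxicity was scored visually at 20 DAA (pre) or 15 DAA (post).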

[12] = system: Alopecurus myosuroides (ALOMY); assay: as above; conditions: 360 h
Summary of the method: as §4

Lolium perenne (LOLPE) = assay: as above; conditions: 360 h
Summary of the method: as §4

[13] = system: Glycine max (GLXMA, soybean); assay: as above; conditions: 360 h
Summary of the method: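 Soybean sprayed 1 day after sowing (pre-emergence) or at about 12 days (post-emergence) with aqueous active ingredient plus 0.2% v/v X-77 adjuvant. Plants grown at 24/18 °C day/night, 16 h light, 65% humidity. Visual % phytotoxicity (100% = total damage) scored at 20 DAA pre-emergence, 15 DAA post-emergence.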

[14] = system: Abutilon theophasti Medik. (ABUTH); assay: Test 1A glasshouse assay for herbicidal activity, post-emergence; conditions: 312 h, evaluated after 13 days, read-out: percentage phytotoxicity ABUTH
Summary of the method: as §2

[15] = system: Amaranthus retroflexus (AMARE); assay: as above; conditions: 312 h, evaluated after 13 days, read-out: percentage phytotoxicity AMARE
Summary of the method: as §2

[16] = system: Echinochloa crus-galli (ECHCG); assay: as above; conditions: 312 h, evaluated after 13 days, read-out: percentage phytotoxicity ECHCG
Summary of the method: as §2

SMILES: CC#Cc1cc(C)c(C2=C(OC(C)=O)CC(c3ccccn3)CC2=O)c(C)c1 (stereo not shown) [Compound A-15]
- pest or weed control at 30 g/ha ([1]; 30 g/ha application rate): 80%
- pest or weed control at 125 g/ha ([1]; 125 g/ha application rate): 100%
- pest or weed control at 30 g/ha ([2]; 30 g/ha application rate): 90%
- pest or weed control at 125 g/ha ([2]; 125 g/ha application rate): 100%
- pest or weed control at 30 g/ha (Setaria faberi (SETFA) [3]; 30 g/ha application rate): 80%
- pest or weed control at 125 g/ha (Setaria faberi (SETFA) [3]; 125 g/ha application rate): 100%
- pest or weed control at 250 g/ha [4]: 40%
- pest or weed control at 250 g/ha [5]: 100%
- pest or weed control at 250 g/ha [6]: 100%
- pest or weed control at 250 g/ha (Setaria faberi (SETFA) [7]): 100%
- pest or weed control at 125 g/ha [8]: 90%
- plant injury at 30 g/ha ([9]; 30 g/ha application rate): 30%
- plant injury at 125 g/ha ([9]; 125 g/ha application rate): 30%
- plant injury at 30 g/ha ([10]; 30 g/ha application rate): 60%
- plant injury at 125 g/ha ([10]; 125 g/ha application rate): 70%
- plant injury at 30 g/ha ([11]; 30 g/ha application rate): 70%
- plant injury at 125 g/ha ([11]; 125 g/ha application rate): 80%
- pest or weed control at 30 g/ha (Avena fatua (AVEFA); 30 g/ha application rate): 60%
- pest or weed control at 125 g/ha (Avena fatua (AVEFA); 125 g/ha application rate): 80%
- pest or weed control at 30 g/ha ([12]; 30 g/ha application rate): 70%
- pest or weed control at 125 g/ha ([12]; 125 g/ha application rate): 80%
- pest or weed control at 30 g/ha (Lolium perenne (LOLPE); 30 g/ha application rate): 80%
- pest or weed control at 125 g/ha (Lolium perenne (LOLPE); 125 g/ha application rate): 90%
- plant injury at 30 g/ha ([13]; 30 g/ha application rate): 20%
- plant injury at 125 g/ha ([13]; 125 g/ha application rate): 60%
- pest or weed control at 30 g/ha ([14]; 30 g/ha): 20%
- pest or weed control at 250 g/ha ([14]; 250 g/ha): 80%
- pest or weed control at 30 g/ha ([15]; 30 g/ha): 0%
- pest or weed control at 250 g/ha ([15]; 250 g/ha): 60%
- pest or weed control at 30 g/ha ([16]; 30 g/ha): 100%
- pest or weed control at 250 g/ha ([16]; 250 g/ha): 100%
